The NIST ThermoML archive (doi:10.1021/je800439e)
Where “and” joins values, the source holds several entries; their conditions need not be identical. Equal entries are not always repeated.

Tests used:
[1] = xn = mol fraction of the nth substance listed; conditions: 101 kPa, Liquid
[2] = 101 kPa, Liquid

Cc1c(C)c2c(c(C)c1O)CCC(C)(CCCC(C)CCCC(C)CCCC(C)C)O2 (stereo not drawn) [dl-α-tocopherol] + Cc1cc(C)cc(C)c1
viscosity [mPa·s], [1]
Conditions	x1 = 0.2025	x1 = 0.4036	x1 = 0.5972	x1 = 0.7955	x1 = 1
278.15 K	6.85	148.08	1253.6	5944.7	37128
284.15 K	5.55	92.32	658.51	3037.6	15242
290.15 K	4.6	56.98	357.26	1533.2	6380.1
296.15 K	3.88	38	210.82	819.67	3017.5
302.15 K	3.24	26.65	130.99	477.36	1531
308.15 K	2.94	19.06	83.96	276.12	814.81
314.15 K	2.39	14.43	55.52	173.98	454.58
320.15 K	2.14	11.42	40.57	116	283.56
325.15 K	1.96	9.28	30.55	82.01	187.51
330.15 K	1.83	7.75	23.73	60.1	129.2
335.15 K	1.72	6.56	18.89	45.63	92.65
340.15 K	1.65	5.59	15.33	34.46	67.32
345.15 K	1.52	4.81	12.33	26.47	49.98
350.15 K	1.37	4.25	10.5	21.44	37.4

Cc1cc(C)cc(C)c1 [1,3,5-trimethylbenzene] + Cc1c(C)c2c(c(C)c1O)CCC(C)(CCCC(C)CCCC(C)CCCC(C)C)O2
[1], x2 = 0
Conditions	viscosity [mPa·s]
278.15 K	0.85
284.15 K	0.8
290.15 K	0.75
296.15 K	0.63
302.15 K	0.57
308.15 K	0.53
314.15 K	0.49
320.15 K	0.46
325.15 K	0.44
330.15 K	0.41
335.15 K	0.4
340.15 K	0.39
345.15 K	0.35
350.15 K	0.34

Cc1c(C)c2c(c(C)c1O)CCC(C)(CCCC(C)CCCC(C)CCCC(C)C)O2 (stereo not drawn) [dl-α-tocopherol] + CCCCCc1ccc(C2CCC(CCC)CC2)cc1
[1], x1 = 1
Conditions	viscosity [mPa·s]
278.15 K	37128
284.15 K	15242
290.15 K	6380
296.15 K	3017.5
302.15 K	1531
308.15 K	814.81
314.15 K	454.58
320.15 K	283.56
325.15 K	187.51
330.15 K	129.2
335.15 K	92.65
340.15 K	67.32
345.15 K	49.98
350.15 K	37.4

CCCCCc1ccc(C2CCC(CCC)CC2)cc1 (stereo not given) [1-pentyl-4-(4-propylcyclohexyl)-benzene]
[2]
Conditions	viscosity [mPa·s]
278.15 K	27.74
284.15 K	21.48
290.15 K	16.95
296.15 K	13.5
302.15 K	11.09
308.15 K	9.21
314.15 K	7.64
320.15 K	6.58
325.15 K	6.01
330.15 K	5.19
335.15 K	4.57
340.15 K	4.13
345.15 K	3.68
350.15 K	3.29

Cc1cc(C)cc(C)c1 [1,3,5-trimethylbenzene]
[2]
Conditions	viscosity [mPa·s]
278.15 K	0.85
284.15 K	0.8
290.15 K	0.75
296.15 K	0.63
302.15 K	0.57
308.15 K	0.53
314.15 K	0.49
320.15 K	0.46
325.15 K	0.44
330.15 K	0.41
335.15 K	0.4
340.15 K	0.39
345.15 K	0.35
350.15 K	0.34

CCCCCc1ccc(C2CCC(CCC)CC2)cc1 (stereo not given) [1-pentyl-4-(4-propylcyclohexyl)-benzene] + Cc1c(C)c2c(c(C)c1O)CCC(C)(CCCC(C)CCCC(C)CCCC(C)C)O2
viscosity [mPa·s], [1]
Conditions	x2 = 0	x2 = 0.2058	x2 = 0.4023	x2 = 0.6026	x2 = 0.8018
278.15 K	27.74	75.95	384.28	1270.6	7471.9
284.15 K	21.48	53.48	231.6	794.38	3488.2
290.15 K	16.95	38.25	145.52	441.94	1669.9
296.15 K	13.5	28.1	96.37	266.41	911.16
302.15 K	11.09	21.57	65.92	163.27	485.33
308.15 K	9.21	16.8	46.14	106.33	278.53
314.15 K	7.64	13.17	33.91	71.05	173.09
320.15 K	6.58	10.98	26.01	51.66	120.77
325.15 K	6.01	9.33	20.65	39.36	82.86
330.15 K	5.19	7.98	16.86	30.2	61.04
335.15 K	4.57	6.85	14.03	24.08	46.15
340.15 K	4.13	6.04	11.75	19.47	35.24
345.15 K	3.68	5.37	9.97	16.1	27.32
350.15 K	3.29	4.7	8.55	13.3	22.24

Cc1c(C)c2c(c(C)c1O)CCC(C)(CCCC(C)CCCC(C)CCCC(C)C)O2 (racemic) [dl-α-tocopherol]
[2]
Conditions	viscosity
278.15 K	37128 mPa·s
284.15 K	15242 mPa·s
290.15 K	6380 mPa·s and 6380.1 mPa·s
296.15 K	3017.5 mPa·s
302.15 K	1531 mPa·s
308.15 K	814.81 mPa·s
314.15 K	454.58 mPa·s
320.15 K	283.56 mPa·s
325.15 K	187.51 mPa·s
330.15 K	129.2 mPa·s
335.15 K	92.65 mPa·s
340.15 K	67.32 mPa·s
345.15 K	49.98 mPa·s
350.15 K	37.4 mPa·s
